According to PubChem BioAssay AID1000 (SRMLSC, 2008):
Activity calls are given as the source filed them.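 Rule for the calls: active = over 20% inhibition at the single screening dose, then confirmed by dose response with half-maximal potency of 40 µM or better; inactive = the rest.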

What follows are compounds tested against mevalonate kinase (Streptococcus pneumoniae D39) (assay: mevalonate kinase inhibitor confirmation – biochemical, cuvette format, NADH absorbance 340 nm (AID 1000)). Details: recombinant MK, PK/LDH coupled NADH absorbance 340 nm.
`Cc1ccc(-n2sc3ccccc3c2=O)cc1C(=O)N1CCCCC1` was tested, and the IC50 was 306 nM. `CN(C)C(=O)c1ccccc1-n1sc2ccccc2c1=O` was tested, and the IC50 was 754 nM. `O=C(NCc1ccco1)c1ccccc1-n1sc2ccccc2c1=O` was tested, and the IC50 was 579 nM. `CN(C)C(=O)c1ccc(-n2sc3ccccc3c2=O)cc1` was tested, and the IC50 was 389 nM. For `O=C(c1ccccc1-n1sc2ccccc2c1=O)N1CCCCC1`, the IC50 was 531 nM. Work on `O=C(NCc1ccccc1)c1cccc(-n2sc3ccccc3c2=O)c1` yielded an IC50 of 68 nM. `O=C(c1cccc(-n2sc3ccccc3c2=O)c1)N1CCCC1` showed an IC50 of 230 nM. In the case of `O=C(c1ccccc1-n1sc2ccccc2c1=O)N1CCCC1`, the IC50 is reported as 514 nM. `O=C(NCc1ccco1)c1cccc(-n2sc3ccccc3c2=O)c1` was tested, and the IC50 was 137 nM. `CN(C)C(=O)c1cccc(-n2sc3ccccc3c2=O)c1` showed an IC50 of 369 nM. `O=C(NCc1ccco1)c1ccc(-n2sc3ccccc3c2=O)cc1` gave an IC50 of 157 nM. `O=C(c1ccccc1-n1sc2ccccc2c1=O)N1CCOCC1` showed an IC50 of 1630 nM. Compound `O=C(c1ccc(-n2sc3ccccc3c2=O)cc1)N1CCOCC1` has an IC50 of 383 nM. `O=C(NC1CC1)c1ccccc1-n1sc2ccccc2c1=O` gave an IC50 of 958 nM. Compound `CN1CCN(C(=O)c2ccc(-n3sc4ccccc4c3=O)cc2)CC1` has an IC50 of 459 nM. `CCCN(CCC)C(=O)c1ccccc1-n1sc2ccccc2c1=O` gave an IC50 of 795 nM. `CCCNC(=O)c1ccc(-n2sc3ccccc3c2=O)cc1` showed an IC50 of 134 nM. `Cc1ccc(-n2sc3ccccc3c2=O)cc1S(=O)(=O)N1CCCC1` showed an IC50 of 83 nM. In the case of `CCN(CC)C(=O)c1ccccc1-n1sc2ccccc2c1=O`, the IC50 is reported as 1010 nM. In the case of `O=C(c1cccc(-n2sc3ccccc3c2=O)c1)N1CCOCC1`, the IC50 is reported as 432 nM. `CCCNC(=O)c1cccc(-n2sc3ccccc3c2=O)c1` showed an IC50 of 277 nM. For `CCCNC(=O)c1ccccc1-n1sc2ccccc2c1=O`, the IC50 was 381 nM. `O=C(NC1CC1)c1cccc(-n2sc3ccccc3c2=O)c1` showed an IC50 of 197 nM. With `O=C(c1ccc(-n2sc3ccccc3c2=O)cc1)N1CCCCC1` the IC50 was 246 nM. `CCN(CC)C(=O)c1cccc(-n2sc3ccccc3c2=O)c1` showed an IC50 of 214 nM. With `O=C(NCc1ccccc1)c1ccccc1-n1sc2ccccc2c1=O` the IC50 was 242 nM. In the case of `O=C(NCCN1CCCC1)c1ccc(-n2sc3ccccc3c2=O)cc1`, the IC50 is reported as 304 nM. Compound `O=C(NCc1ccccc1)c1ccc(-n2sc3ccccc3c2=O)cc1` has an IC50 of 94 nM. Work on `O=C(c1cccc(-n2sc3ccccc3c2=O)c1)N1CCCCC1` yielded an IC50 of 244 nM. Work on `O=C(NC1CC1)c1ccc(-n2sc3ccccc3c2=O)cc1` yielded an IC50 of 171 nM. Work on `CCN(CC)C(=O)c1ccc(-n2sc3ccccc3c2=O)cc1` yielded an IC50 of 230 nM. With `O=C(c1ccc(-n2sc3ccccc3c2=O)cc1)N1CCCC1` the IC50 was 198 nM. For `O=c1c2ccccc2nc2n1CCC2NC(c1ccccc1)c1ccccc1` (configuration not stated), the IC50 was 17300 nM. `O=C(NCC1CC1)c1ccc(-n2sc3ccccc3c2=O)cc1` showed an IC50 of 176 nM. With `CCCN(CCC)C(=O)c1cccc(-n2sc3ccccc3c2=O)c1` the IC50 was 304 nM. `CCCN(CCC)C(=O)c1ccc(-n2sc3ccccc3c2=O)cc1` was tested, and the IC50 was 168 nM.

Same assay, conditions: recombinant MK, PK/LDH coupled NADH absorbance 340 nm; at 100 µM; stronger effect = higher value
For `O=c1c2cc(Cl)ccc2nc2n1CCC2`, the inhibition was “inactive”. `O=c1c2ccccc2nc2n1CCC2SCc1ccccc1` (configuration not stated) was tested, and the inhibition was “inactive”. `Cc1cccc2c(=O)n3c(nc12)CCC3` was tested, and the inhibition was “inactive”. With `O=c1c2ccc(F)cc2nc2n1CCC2` the inhibition was “inactive”. For `O=c1c2ccccc2nc2n1CCC2N1CCOCC1` (configuration not stated), the inhibition was “inactive”. For `O=c1c2ccccc2nc2n1CCC2SCCc1ccccc1` (configuration not stated), the inhibition was “inactive”. `O=c1c2ccccc2nc2n1CCC2NC1CC1` (configuration not stated) was tested, and the inhibition was “inactive”. For `COc1cccc2c(=O)n3c(nc12)CCC3`, the inhibition was “inactive”. For `COc1cccc2c(=O)n3c(nc12)/C(=C/c1ccc2c(c1)OCO2)CC3`, the inhibition was “inactive”. With `O=c1c2cccc(Cl)c2nc2n1CCC2` the inhibition was “inactive”. For `COc1cc2nc3n(c(=O)c2cc1OC)CCC3`, the inhibition was “inactive”. In the case of `Cc1ccc2nc3n(c(=O)c2c1)CCC3`, the inhibition is reported as “inactive”. In the case of `O=c1c2cc(Br)ccc2nc2n1CCC2`, the inhibition is reported as “inactive”. In the case of `COc1cccc(CCNC2CCn3c2nc2ccccc2c3=O)c1` (configuration not stated), the inhibition is reported as “inactive”. `O=c1c2ccc(Cl)cc2nc2n1CCC2` was tested, and the inhibition was “inactive”. For `O=c1c2ccccc2nc2n1CCC2(Br)Br`, the inhibition was “inactive”. `O=c1c2c(F)cccc2nc2n1CCC2` was tested, and the inhibition was “inactive”. With `O=c1c2c(Cl)cccc2nc2n1CCC2` the inhibition was “inactive”. With `COc1ccc(CSC2CCn3c2nc2ccccc2c3=O)cc1` (configuration not stated) the inhibition was “inactive”. In the case of `O=c1c2cc(F)ccc2nc2n1CCC2`, the inhibition is reported as “inactive”. With `O=c1c2ccccc2nc2n1CCC2N1CCC(Cc2ccccc2)CC1` (configuration not stated) the inhibition was “inactive”.
